Test [1] concerns the target T1, BMPR2 (Homo sapiens, UniProt Q13873).
T1 sequence (Q13873 27-1038): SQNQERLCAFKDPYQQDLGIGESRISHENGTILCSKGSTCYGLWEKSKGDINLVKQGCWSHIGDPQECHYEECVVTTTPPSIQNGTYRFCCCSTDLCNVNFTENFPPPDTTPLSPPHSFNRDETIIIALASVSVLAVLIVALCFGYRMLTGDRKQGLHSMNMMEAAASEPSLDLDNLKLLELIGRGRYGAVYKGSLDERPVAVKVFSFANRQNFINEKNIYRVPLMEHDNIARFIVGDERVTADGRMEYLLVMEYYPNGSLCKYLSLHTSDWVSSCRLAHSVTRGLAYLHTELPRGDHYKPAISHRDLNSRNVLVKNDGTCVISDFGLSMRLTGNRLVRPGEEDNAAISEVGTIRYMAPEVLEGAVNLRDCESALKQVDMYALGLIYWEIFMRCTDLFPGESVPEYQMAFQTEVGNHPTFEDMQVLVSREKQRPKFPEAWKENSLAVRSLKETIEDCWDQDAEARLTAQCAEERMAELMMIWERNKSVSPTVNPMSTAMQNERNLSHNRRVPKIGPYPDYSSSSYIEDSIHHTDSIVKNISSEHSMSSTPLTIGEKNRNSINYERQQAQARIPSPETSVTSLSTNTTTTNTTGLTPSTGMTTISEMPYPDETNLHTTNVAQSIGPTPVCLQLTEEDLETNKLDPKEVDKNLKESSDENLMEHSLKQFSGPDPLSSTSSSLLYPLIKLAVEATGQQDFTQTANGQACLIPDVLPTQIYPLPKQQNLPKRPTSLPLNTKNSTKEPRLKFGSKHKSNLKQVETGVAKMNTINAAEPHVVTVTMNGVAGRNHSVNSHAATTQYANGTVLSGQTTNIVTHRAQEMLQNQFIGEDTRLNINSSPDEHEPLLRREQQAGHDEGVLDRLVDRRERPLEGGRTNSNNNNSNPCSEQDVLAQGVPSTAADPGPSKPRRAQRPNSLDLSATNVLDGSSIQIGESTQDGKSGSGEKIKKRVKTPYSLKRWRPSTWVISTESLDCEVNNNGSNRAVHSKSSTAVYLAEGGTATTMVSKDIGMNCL
The test is described as follows: LanthaScreen Eu kinase binding assay, BMP type II receptor BMPR2. Conditions: 10-point titration from 10 μM, 3-fold serial dilution, Life Technologies. On the procedure: (§1) Kinase Profiling BMP Type II Receptor Experimental Procedure (Life Technologies, 5225 Vernona Road, Madison, Wis. 53744)
(§2) The measurement of each compound's half maximal inhibitory concentration (IC50) for BMP type II receptors (ACVR2A, ACVR2B, BMPR2 and TGFbR2) was carried out at Life Technologies by using its 10-point titration (starting concentration: 10 μM with 3-fold serial dilution) LanthaScreen™ biochemical kinase assay protocol. For the detailed description of LanthaScreen™ Eu kinase binding assay condition, please see: https://www.thermofisher.com/us/en/home/industrial/pharma-biopharma/drug-discovery-development/target-and-lead-identification-and-validation/kinasebiology/kinase-activity-assays/lanthascreentm-eu-kinas e-binding-assay/lanthascreen-eu-kinase-binding-assay-validation-table.html.

The subject of test [2] is TGFb. The test is described as follows: Cell assay HTRF TGFb (Table 15). The format is cell-based. Conditions: read-out: HRTF TGFb (IC50).
The test system of test [3] is BMP6. The test is described as follows: Cell assay HTRF BMP6 (Table 15). The format is cell-based.
Test [4] addresses TGFβR2 (Homo sapiens, UniProt P37173). Nature of the test: LanthaScreen Eu kinase binding assay, BMP type II receptor TGFbR2. Conditions: 10-point titration from 10 μM, 3-fold serial dilution, Life Technologies. An excerpt: (§3) For the detailed description of LanthaScreen™ Eu kinase binding assay condition, please see: https://www.thermofisher.com/us/en/home/industrial/pharma-biopharma/drug-discovery-development/target-and-lead-identification-and-validation/kinasebiology/kinase-activity-assays/lanthascreentm-eu-kinas e-binding-assay/lanthascreen-eu-kinase-binding-assay-validation-table.html.

The target in test [5] is ACVR2B (Homo sapiens, UniProt Q13705). The test is described as follows: LanthaScreen Eu kinase binding assay, BMP type II receptor ACVR2B. The settings on record: 10-point titration from 10 μM, 3-fold serial dilution, Life Technologies. On the procedure: as §1, §2
Test [6] deals with ACVR2A (Homo sapiens, UniProt P27037). The test is described as follows: LanthaScreen Eu kinase binding assay, BMP type II receptor ACVR2A. Conditions: 10-point titration from 10 μM, 3-fold serial dilution, Life Technologies.
Text: as §3

Test [7] addresses T2, ALK2 (Homo sapiens, UniProt Q04771).
T2 sequence (Q04771 147-509 limits assumed): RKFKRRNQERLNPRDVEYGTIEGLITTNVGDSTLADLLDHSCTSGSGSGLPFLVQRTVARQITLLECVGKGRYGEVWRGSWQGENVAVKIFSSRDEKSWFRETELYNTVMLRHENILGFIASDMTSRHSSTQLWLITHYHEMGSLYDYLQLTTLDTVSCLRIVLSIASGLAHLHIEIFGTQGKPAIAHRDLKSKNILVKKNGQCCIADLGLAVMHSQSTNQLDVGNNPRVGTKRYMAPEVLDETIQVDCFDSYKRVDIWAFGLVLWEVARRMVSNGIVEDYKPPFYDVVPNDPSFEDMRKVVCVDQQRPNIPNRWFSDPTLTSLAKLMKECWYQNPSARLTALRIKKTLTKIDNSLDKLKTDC
Nature of the test: ALK2 (nM), Table 15. The test is classed as biochemical.

Test [8] deals with T3, ALK2 (Mus musculus, UniProt P37172).
T3 construct: endogenous in cells; host or cells: C2C12-BRE (BRE-Luc reporter line, G418 selection)
T3 sequence (P37172 21-509): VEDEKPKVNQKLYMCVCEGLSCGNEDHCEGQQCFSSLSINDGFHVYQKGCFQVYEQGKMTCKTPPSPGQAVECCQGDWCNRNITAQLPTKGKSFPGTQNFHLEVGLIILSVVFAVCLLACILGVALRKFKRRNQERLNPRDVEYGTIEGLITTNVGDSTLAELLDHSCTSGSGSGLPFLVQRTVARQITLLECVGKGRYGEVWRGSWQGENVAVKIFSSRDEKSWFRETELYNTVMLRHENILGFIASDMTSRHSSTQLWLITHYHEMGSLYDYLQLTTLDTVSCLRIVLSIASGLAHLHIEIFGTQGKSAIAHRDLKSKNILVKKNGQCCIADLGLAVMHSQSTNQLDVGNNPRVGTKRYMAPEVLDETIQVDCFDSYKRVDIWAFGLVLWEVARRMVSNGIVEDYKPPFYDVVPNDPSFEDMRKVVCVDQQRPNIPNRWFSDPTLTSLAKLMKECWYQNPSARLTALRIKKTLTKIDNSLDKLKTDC
Nature of the test: Luciferase reporter gene assay for ALK2 activity (C2C12 BRE-Luc SMAD1/5/8 reporter, BMP6 agonist). The test is classed as cell-based. The settings on record: BMP6 50 ng/mL. The method in brief:
(§4)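 TGFβ activity was measured in HEK293T SBE-Luc cells stimulated with 5 ng/mL TGFβ, at compound 10000-30 nM final. ALK2 activity was measured in C2C12 BRE-Luc cells stimulated with 50 ng/mL BMP6, at compound 1000-0.3 nM final. Compound was preincubated 45 min in 2% FBS medium; after ≥18 h agonist exposure, luminescence was read and inhibition expressed as % signal loss versus background-subtracted agonist controls.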

Test [9] deals with TGFβ. The test is described as follows: Luciferase reporter gene assay for TGFβ activity (HEK293T SBE-Luc SMAD2/3 reporter, TGFβ agonist). Conditions: Homo sapiens, HEK-293T, TGFβ 5 ng/mL. The test is classed as cell-based. The method in brief:
as §4

Structures are written as SMILES.

Sequence of ACVR2A (P27037 20-513): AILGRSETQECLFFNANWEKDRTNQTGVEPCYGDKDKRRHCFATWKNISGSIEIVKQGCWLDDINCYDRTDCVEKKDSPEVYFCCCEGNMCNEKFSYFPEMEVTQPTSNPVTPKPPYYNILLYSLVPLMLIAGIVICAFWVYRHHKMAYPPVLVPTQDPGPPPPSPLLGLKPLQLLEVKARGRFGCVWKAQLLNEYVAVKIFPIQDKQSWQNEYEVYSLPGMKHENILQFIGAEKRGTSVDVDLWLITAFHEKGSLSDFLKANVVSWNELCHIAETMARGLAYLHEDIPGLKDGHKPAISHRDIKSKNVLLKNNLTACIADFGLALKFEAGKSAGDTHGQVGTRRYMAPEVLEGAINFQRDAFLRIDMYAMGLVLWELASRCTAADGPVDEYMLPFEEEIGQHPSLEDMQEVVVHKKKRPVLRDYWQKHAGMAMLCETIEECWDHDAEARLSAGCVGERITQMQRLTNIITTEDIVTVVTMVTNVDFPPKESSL
Sequence of ACVR2B (Q13705 19-512): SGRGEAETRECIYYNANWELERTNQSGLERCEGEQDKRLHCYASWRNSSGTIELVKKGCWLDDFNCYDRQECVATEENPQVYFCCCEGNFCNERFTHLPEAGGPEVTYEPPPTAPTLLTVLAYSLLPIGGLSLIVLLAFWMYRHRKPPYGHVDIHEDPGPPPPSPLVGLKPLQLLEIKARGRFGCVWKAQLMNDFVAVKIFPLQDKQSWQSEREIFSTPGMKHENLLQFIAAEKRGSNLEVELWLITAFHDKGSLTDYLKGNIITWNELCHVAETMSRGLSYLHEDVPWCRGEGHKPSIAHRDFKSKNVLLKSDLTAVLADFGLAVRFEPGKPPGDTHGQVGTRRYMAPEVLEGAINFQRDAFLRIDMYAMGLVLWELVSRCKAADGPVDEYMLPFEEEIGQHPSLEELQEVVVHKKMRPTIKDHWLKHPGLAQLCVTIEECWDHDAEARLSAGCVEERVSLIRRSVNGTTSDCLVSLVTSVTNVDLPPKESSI
Sequence of TGFβR2 (P37173 23-567): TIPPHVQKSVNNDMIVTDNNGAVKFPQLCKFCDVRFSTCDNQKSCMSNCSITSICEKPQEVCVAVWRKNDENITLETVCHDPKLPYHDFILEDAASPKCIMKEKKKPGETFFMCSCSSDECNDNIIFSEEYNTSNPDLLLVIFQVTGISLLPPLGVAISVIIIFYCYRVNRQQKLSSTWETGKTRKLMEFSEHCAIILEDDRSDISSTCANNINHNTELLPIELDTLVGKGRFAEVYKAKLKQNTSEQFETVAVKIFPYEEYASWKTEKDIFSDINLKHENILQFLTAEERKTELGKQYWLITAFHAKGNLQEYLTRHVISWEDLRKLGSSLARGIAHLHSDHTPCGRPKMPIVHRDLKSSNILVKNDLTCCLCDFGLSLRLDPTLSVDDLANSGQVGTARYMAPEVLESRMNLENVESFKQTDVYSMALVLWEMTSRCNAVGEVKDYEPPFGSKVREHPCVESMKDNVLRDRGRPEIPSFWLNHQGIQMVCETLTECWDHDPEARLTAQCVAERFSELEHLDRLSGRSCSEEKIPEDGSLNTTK

For `c1ccc2c(-c3cnn4cc(N5CCN(C6CCNCC6)CC5)cnc34)ccnc2c1` [Compound 79], the IC50 in test [1] is over 10 µM; in test [2], 4.61 µM; in test [3], 0.0974 µM; in [4], 0.0713 µM; in test [5], 1.28 µM; in test [6] it was 0.851 µM. The same molecule gave an IC50 in [7] of 0.11 µM.

Consider `c1ccc2c(-c3cnn4cc(N5CCNCC5)cnc34)ccnc2c1` [Compound 80], for which the IC50 in [8] is 0.025 µM; in test [1], at least 10 µM; in [9], 0.033 µM; in test [2], 5.79 µM; in [3] it was 0.25 µM; in test [4], 0.194 µM. Further, the IC50 was 3.61 µM in test [5], 3.71 µM in test [6] and 0.093 µM in test [7].

Source of the values: US20230000869A1, “NOVEL ALK2 INHIBITORS AND METHODS FOR INHIBITING BMP SIGNALING” (The Brigham and Women's Hospital, Inc., priority 2017, published 2023).
